Results as given in patent publication US7125695B2, “Directed evolution of microorganisms” (Genencor International, Inc., priority 1999, dated 2006).

How the values were obtained:
[1] = target: T1, Escherichia blattae 1,3-propanediol dehydrogenase (PDD, dhaT), mutant PDD from evolved strain GEB031 (ATCC PTA-92), SEQ ID NO:4 (Shimwellia blattae, UniProt Q3ZL59, H105L); assay: PDD comparison, 1,3-propanediol dehydrogenase from evolved strain GEB031; format: biochemical, Escherichia blattae GEB031 (ATCC PTA-92); settings: PDD from evolved strain GEB031, compared with wild type E. blattae
T1 construct: no tag
Method: (§1) Strains—Wild type ATCC 33429, E. blattae comprising the mutant PDD as described in Example 4 and having ATCC accession number PTA-92.
(§2) Growth—Cells were grown in a complex medium at 30C 500 ml in a 2800 ml fernbach with shaking at 225 rpm for 20 hr. The medium consists of KH2PO4, 5.4 g/L; (NH4)2SO4, 1.2 g/L; MgSO47H2O, 0.4 g/L; yeast extract, 2.0 g/L; tryptone, 2.0 g/L; and glycerol, 9.2 g/L in tap water. The pH was adjusted to 7.1 with KOH before autoclaving (Honda, et al., 1980, J. Bacteriol, 143:1458–1465).
(§3) Extract prep—Cells were harvested by centrifugation with care to avoid anaerobic conditions. Pellets were resuspended in 100 mM Tricine pH 8.2 containing 50 mM KCl and 1 mM DTT. Cells were disrupted by passage through a French pressure cell. Crude extracts were clarified by centrifugation at 20K×g for 20 min followed by 100K×g for 1 hr to yield the high speed supernatant (HSS) fraction.
(§4) Assays—the assay for PDD was performed as described by Johnson, E. A. et al., 1987, J. Bacteriol. 169:2050–2054.
(§5) Partial purification of PDD—HSS was separated on a 16×100 Poros 20HQ column. The buffers were A, 50 mM HEPES, pH 7.4 containing 100 uM MnCl and B, A buffer containing 500 mM KCl. The column was loaded and developed at 10 ml/min. The gradient was 10 CV wash, a linear gradient to 70% B in 10 CV, and 1 CV to 100% B. The activity was detected in the very early fractions of the gradient. […]

[2] = tested on: wild-type E. blattae; assay: Viability (plate counts) of wild-type E. blattae during glycerol fermentation with accumulation of 3HPA; format: cell-based, Escherichia blattae ATCC 33429; settings: anaerobic glycerol fermentation, 30° C., 3HPA accumulated to 50 mM
Method: FIG. 5—Glycerol fermentation of E. blattae at pH 7.0. Culture conditions are described in the text. Plate counts were by serial dilution and performed in triplicate on Luria agar plates. Substrate and 0products were measured by HPLC.
The wild-type E. blattae and the evolved E. blattae were subjected to fermentation in the following medium: 75 g glycerol, 5 g K2HPO4.3H2O, 3 g KH2PO4, 2 g (NH4)2SO4, 0.4 g MgSO4.7H2O, 0.2 g CaCl2.2H2O, 4 mg CoCl2.2H2O, 2 g yeast extract, and 1 g peptone per liter water. The pH was maintained with 20% NaOH. Both fermentations were run at 30° C. with a N2 sparge and were inoculated with a stationary grown overnight preculture.
The wild-type E. blattae accumulated 3HPA and stopped growing and metabolizing glycerol. The accumulation of 3HPA was high and reached 50 mM. […] After the culture had consumed all of the glycerol more was added and the culture continued converting glycerol to 1,3-propanediol.

[3] = substrate: NC(=O)c1ccc[n+]([C@@H]2O[C@H](COP(=O)([O-])OP(=O)(O)OC[C@H]3O[C@@H](n4cnc5c(N)ncnc54)[C@H](O)[C@@H]3O)[C@@H](O)[C@H]2O)c1; assay: PDD kinetics, partially purified 1,3-propanediol dehydrogenase from wild type strain 33429; format: biochemical, Escherichia blattae ATCC 33429; settings: other: PDD of wild type strain 33429; cofactor NAD; 30.0 °C
Method: as §1, §2, §3, §4, §5

[4] = substrate: OCCCO; assay: as above; format: biochemical, Escherichia blattae ATCC 33429; settings: other: PDD of wild type strain 33429; substrate 1,3-propanediol; 30.0 °C
Method: as §1, §2, §3, §4, §5

T1 sequence (Q3ZL59 entry or part of it H105L): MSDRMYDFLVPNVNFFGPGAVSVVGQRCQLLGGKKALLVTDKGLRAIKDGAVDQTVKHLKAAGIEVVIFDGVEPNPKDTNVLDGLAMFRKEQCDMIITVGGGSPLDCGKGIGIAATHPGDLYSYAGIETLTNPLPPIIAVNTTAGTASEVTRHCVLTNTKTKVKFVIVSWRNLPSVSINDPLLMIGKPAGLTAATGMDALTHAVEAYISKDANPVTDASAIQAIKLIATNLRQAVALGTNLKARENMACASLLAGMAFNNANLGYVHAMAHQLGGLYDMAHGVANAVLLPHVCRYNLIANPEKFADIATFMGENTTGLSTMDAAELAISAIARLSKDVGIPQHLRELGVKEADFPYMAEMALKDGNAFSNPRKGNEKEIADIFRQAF

For `OCCCO` [1,3-propanediol], the “Km for 1,3-propanediol” value [1] was “higher”.

`O=CCCO` [3HPA, 3-hydroxy-propionaldehyde] was tested, and the “toxicity of accumulated 3HPA (plate counts)” value [2] was “toxic”.

B1: Escherichia blattae 1,3-propanediol dehydrogenase (PDD, dhaT), wild type, strain ATCC 33429 (Shimwellia blattae) (protein)
chain: MSDRMYDFLVPNVNFFGPGAVSVVGQRCQLLGGKKALLVTDKGLRAIKDGAVDQTVKHLKAAGIEVVIFDGVEPNPKDTNVLDGLAMFRKEQCDMIITVGGGSPHDCGKGIGIAATHPGDLYSYAGIETLTNPLPPIIAVNTTAGTASEVTRHCVLTNTKTKVKFVIVSWRNLPSVSINDPLLMIGKPAGLTAATGMDALTHAVEAYISKDANPVTDASAIQAIKLIATNLRQAVALGTNLKARENMACASLLAGMAFNNANLGYVHAMAHQLGGLYDMAHGVANAVLLPHVCRYNLIANPEKFADIATFMGENTTGLSTMDAAELAISAIARLSKDVGIPQHLRELGVKEADFPYMAEMALKDGNAFSNPRKGNEKEIADIFRQAF
notes: no tag
In the case of B1, the Km [3] is reported as 0.057 mM and the Km [4] is reported as 28 mM.
